Patent US8334107B2, “Detection systems utilizing supported lipid bilayers” (priority 2005, dated 2012)

Experiments:
[1] = test system: EPC bilayer on porous silica beads; test: Suspension study: release of fluorescein dye from lipid bilayer coated porous silica beads; type: biochemical
Experimental: Lipid coatings on beads were disrupted using 10% Triton X-100. Each sample in micro-centrifuge tubes contained 5 mg of lipid bilayer coated, fluorescein entrapped beads in 200 μL of Tris buffer. Samples were centrifuged and 100 μL aliquots of supernatant were mixed with either 100 μL of Tris buffer or 100 μL of 10% Triton X-100® detergent in separate centrifuge tubes. The fluorescence intensity of each mixture was immediately (time=0) recorded. Each mixture was mixed with its respective bead sample in centrifuge tube and incubated at 25° C. in the dark. After 30 min, samples were centrifuged and fluorescent intensity of the supernatants was measured. Beads were resuspended in their respective supernatants. Fluorescence intensity was again measured at 90 and 150 min.
Experimental procedures were similar to the Triton X-100® detergent based analysis. For experiments with α-toxin, three different toxin concentrations: 15, 45 and 250 μg/mL were used at 37° C. and 25° C. Beads coated with EPC were used. In the experiments with melittin, 220 μM melittin was used with beads coated with either 100% EPC, 10:90 (molar ratio) mixture of DMPG and EPC or an 80:20 mixture of DMPG and DMPC. All melittin experiments were conducted at 25° C.
Previous suspension studies on disruption of lipid bilayers have been performed with small unilamellar vesicles where disruption of the lipid bilayer membranes was detected by monitoring the unquenching of a highly concentrated, encapsulated dye. In the present work disruption was monitored via release of fluorescein dye from porous beads, by measuring the increase in fluorescence intensity of the supernatant at 520 nm. Beads were first suspended in Tris buffer containing the disruptor. After selected time periods, beads were sedimented by centrifuging and a portion of the supernatant was taken for the measurement. The measured portion was added back to the bead sample to permit continuous monitoring. The scattering effect that was present in vesicle based studies was minimized by measuring only the supernatant after centrifugation of the beads.

[2] = test system: lipid membranes on porous silica beads (containing fluorescein dye); test: Microfluidic study: detection of membrane interaction by release of dye from bead packed microcolumn; type: biochemical
Experimental: To create a packed microcolumn of lipid coated beads containing fluorescein, 2 μL of silica bead (diameter=20 μm) containing suspension (0.05 mg/μL) was injected into a microfluidic channel by applying vacuum at the outlet port of the microchannel, followed by the injection of 10 μL of fluorescein-entrapped bead (diameter=10 μm) containing suspension (0.05 mg/μL). The bead packed microchannel was mounted onto a vertical translational stage located in the sample holder space of the fluorimeter. Just below the bead segment, the microchannel was irradiated with an Argon ion laser (λ=488 nm, 8-10 mW) excitation. The inlet of the column was connected to a buffer reservoir while the outlet was connected to a vacuum source. As the fluorescence intensity at 520 nm was monitored, several microliters of Tris buffer was passed through the microchannel before the injection of Triton X-100® detergent. […]
The packed segment was about 2 mm long. The disruption of the membranes on porous silica beads (containing fluorescein dye) by Triton X-100® detergent was detected by monitoring the release of the dye from the beads, at a point just below the bead segment as indicated in FIG. 7B. […] The microcolumn was irradiated at 488 nm and fluorescence intensity was monitored at 520 nm. […]

[3] = test system: DMPG lipid bilayer on MS-PPE; test: Disruption of DMPG lipid bilayer on MS-PPE detected by superquenching with AQS, flow cytometry; type: biochemical
Experimental: Lipid bilayers were disrupted by adding Triton X-100® detergent to the bead suspension to a final concentration of 0.25% (w/v).
(§1) Bead suspensions of 2.5×10^5 PPE-coated microspheres in 200 μL PBS were analyzed using a FACScan flow cytometer (Becton-Dickinson, Sunnyvale, Calif.) with excitation at 488 nm. Fluorescence signals were acquired on the FL-1 channel (525 nm) using log amplification and analyzed with the CellQuest software.
Bead suspensions of 2.5×10^5 DMPG-coated MS-PPE in 200 μL of PBS were analyzed using a FACScan flow cytometer (Becton-Dickinson, Sunnyvale, Calif.) with excitation at 488 nm. Fluorescence signals were acquired on FL-1 channel (525 nm) using log amplification and analyzed with the CellQuest software. Kinetic analysis of disruption of supported lipid bilayer by melittin was performed by acquiring real-time data with continuous mixing of samples (10^6 MS-PPE in 800 μl of PBS) using a magnetic stirrer. The raw data were analyzed using IDL Query software developed by Bruce Edwards (Cancer Center, University of New Mexico, Albuquerque, N. Mex.).
Because an anionic lipid was used to form a lipid bilayer around MS-PPE, it was expected that MLT will disrupt the DMPG lipid bilayer by such a detergent-like action. This was tested by adding 10 μM AQS to DMPG-coated MS-PPE followed by treatment with one of the following: Triton X-100® detergent, synthetic MLT (sMLT), or natural MLT (nMLT) and immediately reading the fluorescence by flow cytometry. […] These histograms resemble the ones reported previously for MS-PPE, without a lipid coating, in absence and in presence of AQS.
The kinetics of disruption of supported lipid bilayer by MLT were monitored by measuring real-time changes in fluorescence intensity by flow cytometry (FIG. 19). Suspensions of 10^6 DMPG-coated MS-PPE in 800 μL of PBS were treated with AQS at a final concentration of 10 μM, then with either sMLT, Triton X-100® detergent, or no treatment. […] Treatment with sMLT in the absence of AQS led to an increase in normalized fluorescence (FIG. 19, trace A). This can be attributed to disruption of the lipid bilayer by sMLT, and is consistent with a reversal of the slight quenching of fluorescence caused by the formation of a DMPG lipid bilayer over MS-PPE. Addition of AQS alone to DMPG-coated MS-PPE (FIG. 19, trace C) led to a 20% reduction in fluorescence as reported earlier. Addition of Triton X-100® detergent to DMPG-coated MS-PPE after the addition of AQS (first dip in trace E, FIG. 19) caused immediate decrease in fluorescence to ˜10% of its original value (second dip in trace E, FIG. 19). In contrast, addition of sMLT, after the addition of AQS, (FIG. 19, trace D) led to a gradual reduction of fluorescence intensity to ˜20% of the original value. Although MLT forms dimers at high concentrations (Dempsey, C. E. Biochim. Biophys. Acta 1990, 1031, 143-161), it is monomeric at the concentrations used in this study. On the other hand, Triton X-100® detergent forms micelles at the concentration used in this study.

[4] = Lipid bilayers on MS-PPE as barriers to superquenching by AQS, flow cytometry; type: physicochemical; conditions: 10 μM AQS
Experimental: Small unilamellar vesicles (SUVs) were prepared using a 2 mM solution of DPPC, 1 mM egg-PC, or 2 mM DMPG in chloroform. The lipid was dried by nitrogen gas followed by vacuum. The dried lipid was resuspended in phosphate buffer saline (PBS), pH 7.4, and incubated at 37° C. for 10 min, then sonicated to optical clarity in a sonication bath (Branson Cleaning Equipment Co., Shelton, Conn.).
Lipid bilayers were assembled on microspheres as previously described (Buranda et al. Langmuir 19:1654-1663 (2003); Bayerl & Bloom, Biophys J 58:357-362 (1990)). Briefly, the small unilamellar vesicles were incubated at 37° C. for 5 min, and PPE-coated microspheres were added to them, and mixed at room temperature using a vortex mixer for 30 min, followed by incubation at 37° C. for 5 min without mixing. The lipid-coated PPE-coated microspheres were washed by suspension in PBS followed by centrifugation, where the clear supernatant was decanted and discarded. The cycle of resuspension, centrifugation, and decanting, was repeated four additional times. Finally, the lipid-coated PPE-coated microspheres were resuspended in PBS.
as §1
The feasibility of using the zwitterionic lipids DPPC and egg-PC to form supported lipid bilayers on MS-PPE was assessed (FIG. 15). […] Addition of AQS produced an almost 40% reduction of the polymer fluorescence, yet the fluorescence of the DPPC bilayer coated MS-PPE in the presence of the AQS quencher was still almost 10-fold higher than that of MS-PPE and quencher without the lipid.
The PPE polymer is positively charged. […] However when using 2 mM DMPG, the modulation of polymer fluorescence was relatively small (FIG. 15). […] Thus, upon addition of quencher to MS-PPE after treatment with DMPG ˜70% of fluorescence of the PPE was retained (FIGS. 16A and 16B).

[5] = 0.25% (w/v) Triton X-100, 10 μM AQS

Triton X-100
increase in fluorescence intensity of the supernatant ([1]; 10% Triton X-100, first 30 min, 25° C.): more than 70 fold
increase in fluorescence intensity (total disruption of bilayers) ([1]; Triton X-100 added after 150 min of α-toxin exposure): 50 fold
initial signal (1st peak) less than that observed in suspension studies ([2]; 10% Triton X-100, microcolumn versus suspension): ~80%
increase in fluorescence intensity at detection point ([2]; 10 μL of 10% Triton X-100, about 5 min no flow incubation): 25 fold
fluorescence after bilayer disruption, of the fluorescence of DMPG-coated MS-PPE in the absence of quencher [3, 5]: ~18%
fluorescence after bilayer disruption, of the original fluorescence value [3, 5]: ~10%
fluorescence intensity, of the original value ([3]; real-time kinetics, added after 10 μM AQS (traces D, E)): ~10%

CCCCCCCCCCCCCCCC(=O)OC[C@H](COP(=O)([O-])OCC[N+](C)(C)C)OC(=O)CCCCCCCCCCCCCCC [DPPC, 1,2-dipalmitoyl-sn-glycero-3-phosphatidylcholine]
fluorescence with AQS relative to MS-PPE and quencher without the lipid [4]: ~10 fold
reduction (quenching) of polymer fluorescence on addition of AQS ([4]; lipid coated MS-PPE): ~40%

CCCCCCCCCCCCCC(=O)OC[C@H](COP(=O)([O-])OCC(O)CO)OC(=O)CCCCCCCCCCCCC.[Na+] (mixture of isomers) [DMPG, 1,2-dimyristoyl-sn-glycero-3-[phosphor-rac-(1-glycerol)] sodium salt]
fluorescence of the PPE retained upon addition of quencher ([4]; 2 mM DMPG): ~70%
